Assay results from publication PMC2912373, “Low-Density Lipoprotein Receptor-Related Protein 1 (LRP1) Mediates Neuronal Aβ42 Uptake and Lysosomal Trafficking” (PLoS ONE, 2010).

Tests used:
[1] = tested on: MEF cells; assay: FAM-Aβ42 internalization in wild-type (MEF1) and LRP1 knockout (MEF2) fibroblasts, FACS; type: cell-based, mouse; settings: 500 nM FAM-Aβ42, 37°C, 4 h, n = 3, p<0.01
Protocol: (§1) To rule out cell type-specific effects and artifacts due to the expression of LRP1 minireceptor, we performed similar FAM-Aβ42 uptake experiments in GT1-7 neuronal cells with reduced endogenous LRP1 levels by siRNA knockdown (Fig. 3A), and in mouse embryonic fibroblasts from both wild-type (MEF1) and LRP1 knockout mice (MEF2) (Fig. 3B). GT1-7 cells were plated and treated as indicated in the Experimental Procedures and GT1-7 and MEF cells were incubated with 500 nM of FAM-Aβ42 at 37°C for 4 h. Steady-state levels of intracellular Aβ42 were determined by flow cytometric analysis of pronase-treated cells. […]
(§2) Figure 3 LRP1 mediates internalization and accumulation of Aβ42 in GT1-7 and MEF cells. […] After 72 h, cells were treated with 500 nM FAM-Aβ42 for 4 h and intracellular Aβ42 was determined by flow cytometric analyses of pronase-treated cells as described in the Experimental Procedures. […] Wild type (MEF1) and LRP1 knockout (MEF2) fibroblasts were treated with 500 nM FAM-Aβ42 for 4 h, and intracellular Aβ42 was determined by flow cytometric analyses. ** p<0.01, t-test. n = 3. C, cell lysates from GT1-7 and MEF cells treated as in A and B, analyzed by 7.5% SDS-PAGE, and Western blotted with anti-LRP1 antibodies.
(§3) For quantification of Aβ uptake experiments, stable N2a cells were plated into 12-well plates at 16,250 cells/cm^2 and grown overnight. […]

[2] = tested on: GT1-7 cells; assay: FAM-Aβ42 internalization after LRP1 siRNA knockdown, FACS; type: cell-based; settings: 500 nM FAM-Aβ42, 37°C, 4 h, 72 h after LRP1 siRNA; FACS of pronase-treated cells
Protocol: as §1, §2, §3

FAM-Aβ42: FAM-Aβ42 peptide (23526) from Anaspec; amyloid-β 42 with carboxyfluorescein at the N-terminal region
internalization of FAM-Aβ42 in MEF2 (LRP1 knockout) compared to MEF1 (wild type) [1]: decrease | internalization of FAM-Aβ42 in cells with decreased LRP1 levels vs scrambled siRNA control [2]: decrease
